In general, IC50 refers to the concentration needed to halve the response being measured.

Among the data in ChEMBL document CHEMBL1759968, “Synthesis and biological evaluation of unsaturated keto and exomethylene D-arabinopyranonucleoside analogs: novel 5-fluorouracil analogs that target thymidylate synthase” (Eur J Med Chem, 2011) are IC50, Stability and Activity values, retold here.

Active and inactive are the calls of the source. The rule behind the calls is not given here.

For series [1], the target named is T1, Thymidylate synthase (Mus musculus, UniProt P07607). The series can be described thus: Inhibition of thymidylate synthase in mouse L1210 cells assessed as inhibition of tritium release from [5-3H]deoxyuridine after preincubation for 15 mins by liquid scintillation counting. It counts as cell-based.
Series [2] concerns the target T1, Thymidylate synthase. The experiment in a line: Inhibition of thymidylate synthase in mouse L1210 cells assessed as inhibition of tritium release from [5-3H]deoxyuridine after preincubation for 4 hrs by liquid scintillation counting. It counts as cell-based.
The target of series [3] is T1, Thymidylate synthase. The series can be described thus: Inhibition of thymidylate synthase in mouse L1210 cells assessed as inhibition of tritium release from [5-3H]deoxycytidine after preincubation for 15 mins by liquid scintillation counting. It counts as cell-based.
A short description of series [4]: Stability of compound in phosphate buffer at pH 6.2 after 60 mins. It is filed as physicochemical. To be noted: pH 6.2, 1 h.
The nature of series [5]: Stability of compound in phosphate buffered saline up to 3 days. It is filed as physicochemical. To be noted: buffer, 72 h.
Series [6] deals with T1, Thymidylate synthase. The series can be described thus: Inhibition of thymidylate synthase in mouse L1210 cells assessed as inhibition of tritium release from [5-3H]deoxyuridine after preincubation for 24 hrs by liquid scintillation counting. It is filed as cell-based.
For series [7], the target named is T1, Thymidylate synthase. The series can be described thus: Inhibition of thymidylate synthase in mouse L1210 cells assessed as inhibition of tritium release from [5-3H]deoxycytidine after preincubation for 24 hrs by liquid scintillation counting. It counts as cell-based.
In series [8] the target is T1, Thymidylate synthase. The series can be described thus: Inhibition of thymidylate synthase in mouse L1210 cells assessed as inhibition of tritium release from [5-3H]deoxycytidine after preincubation for 4 hrs by liquid scintillation counting. It counts as cell-based.
Series [9] deals with L1210. The experiment in a line: Cytostatic activity against mouse L1210 cells in presence of 20 uM thymidine. It is filed as functional, cell-based.
Series [10] has as its system HeLa. The series can be described thus: Cytostatic activity against human HeLa cells in presence of 500 uM uracil. It is filed as functional, cell-based.
The subject of series [11] is HeLa. The experiment in a line: Cytostatic activity against human HeLa cells in presence of 20 uM thymidine. It counts as functional, cell-based.
In series [12] the test system is HeLa. The experiment in a line: Cytostatic activity against human HeLa cells after 3 days by coulter counting analysis. To be noted: 72 h. It is filed as functional, cell-based.
Series [13] has as its system Human alphaherpesvirus 2. The experiment in a line: Antiviral activity against Herpes simplex virus type-2 infected in HEL cells assessed as inhibition of virus-induced cytopathic effect. It counts as functional, organism-based.
The subject of series [14] is Vesicular stomatitis virus. The experiment in a line: Antiviral activity against Vesicular stomatitis virus infected in HeLa cells assessed as inhibition of virus-induced cytopathic effect. It counts as functional, organism-based. (Cytopathic effects are the visible damage that an infection or toxin causes in cultured cells.)
Series [15] concerns L1210. The series can be described thus: Inhibition of RNA synthesis in mouse L1210 cells assessed as [5-3H]uridine incorporation in to RNA preincubated for 24 hrs by liquid scintillation counting. It is filed as functional, cell-based.
For series [16], the system named is Coxsackievirus B4. The experiment in a line: Antiviral activity against Human coxsackievirus B4 infected in Vero cells assessed as inhibition of virus-induced cytopathic effect. It counts as functional, organism-based.
Series [17] deals with Punta Toro virus. The experiment in a line: Antiviral activity against Punta Toro virus infected in Vero cells assessed as inhibition of virus-induced cytopathic effect. It is filed as functional, organism-based.
Series [18] has as its system Vaccinia virus. The experiment in a line: Antiviral activity against Vaccinia virus infected in HEL cells assessed as inhibition of virus-induced cytopathic effect. It is filed as functional, organism-based. As to conditions: Orthopoxvirus vaccinia.
The test system of series [19] is FM3A. The experiment in a line: Cytostatic activity against mouse FM3A cells after 2 days by coulter counting analysis. It counts as functional, cell-based. To be noted: 48 h.
Series [20] deals with L1210. The experiment in a line: Inhibition of DNA synthesis in mouse L1210 cells assessed as [6-3H]2'-deoxyuridine incorporation in to DNA preincubated for 24 hrs by liquid scintillation counting. It counts as functional, cell-based.
Series [21] has as its system L1210. The experiment in a line: Inhibition of RNA synthesis in mouse L1210 cells assessed as [5-3H]uridine incorporation in to RNA by liquid scintillation counting. It is filed as functional, cell-based.
Series [22] has as its system CCRF-CEM. The experiment in a line: Cytostatic activity against human CEM cells after 3 days by coulter counting analysis. It is filed as functional, cell-based. As to conditions: 72 h.
Series [23] concerns L1210. The series can be described thus: Inhibition of DNA synthesis in mouse L1210 cells assessed as [6-3H]2'-deoxyuridine incorporation in to DNA by liquid scintillation counting. It counts as functional, cell-based.
Series [24] concerns Sindbis virus. The series can be described thus: Antiviral activity against Sindbis virus infected in Vero cells assessed as inhibition of virus-induced cytopathic effect. It is filed as functional, organism-based.
Series [25] concerns L1210. The series can be described thus: Inhibition of DNA synthesis in mouse L1210 cells assessed as [methyl-3H]thymidine incorporation in to DNA by liquid scintillation counting. It is filed as functional, cell-based. A general note: Uptake of a labelled nucleoside into DNA is a usual measure of proliferation.
The test system of series [26] is L1210. The experiment in a line: Cytostatic activity against mouse L1210 cells in presence of 500 uM uridine. It is filed as functional, cell-based.
The subject of series [27] is HeLa. The experiment in a line: Cytostatic activity against human HeLa cells in presence of 20 uM 2'-deoxyuridine. It is filed as functional, cell-based.
Series [28] deals with Human alphaherpesvirus 1. The series can be described thus: Antiviral activity against Herpes simplex virus type-1 infected in HEL cells assessed as inhibition of virus-induced cytopathic effect. It counts as functional, organism-based.
Series [29] relates to Coxsackievirus B4. The series can be described thus: Antiviral activity against Human coxsackievirus B4 infected in HeLa cells assessed as inhibition of virus-induced cytopathic effect. It is filed as functional, organism-based.
Series [30] concerns L1210. The series can be described thus: Inhibition of DNA synthesis in mouse L1210 cells assessed as [methyl-3H]thymidine incorporation in to DNA preincubated for 24 hrs by liquid scintillation counting. It is filed as functional, cell-based.
Series [31] relates to HeLa. The experiment in a line: Cytostatic activity against human HeLa cells in presence of 500 uM uridine. It is filed as functional, cell-based.
For series [32], the system named is Mammalian orthoreovirus 1. The experiment in a line: Antiviral activity against Reovirus 1 infected in Vero cells assessed as inhibition of virus-induced cytopathic effect. It counts as functional, organism-based.
The test system of series [33] is L1210. The experiment in a line: Cytostatic activity against mouse L1210 cells in presence of 500 uM uracil. It is filed as functional, cell-based.
In series [34] the test system is Respiratory syncytial virus. The experiment in a line: Antiviral activity against Respiratory syncytial virus infected in HeLa cells assessed as inhibition of virus-induced cytopathic effect. It is filed as functional, organism-based.
The test system of series [35] is Human respirovirus 3. The series can be described thus: Antiviral activity against Human parainfluenza virus 3 infected in Vero cells assessed as inhibition of virus-induced cytopathic effect. It is filed as functional, organism-based.
The test system of series [36] is L1210. The series can be described thus: Cytostatic activity against mouse L1210 cells after 2 days by coulter counting analysis. It is filed as functional, cell-based. As to conditions: L1210, 48 h.
Series [37] relates to L1210. The series can be described thus: Cytostatic activity against mouse L1210 cells in presence of 20 uM 2'-deoxyuridine. It counts as functional, cell-based.
Series [38] deals with Vesicular stomatitis virus. The series can be described thus: Antiviral activity against Vesicular stomatitis virus infected in HEL cells assessed as inhibition of virus-induced cytopathic effect. It is filed as functional, organism-based.

T1 sequence (P07607 whole entry): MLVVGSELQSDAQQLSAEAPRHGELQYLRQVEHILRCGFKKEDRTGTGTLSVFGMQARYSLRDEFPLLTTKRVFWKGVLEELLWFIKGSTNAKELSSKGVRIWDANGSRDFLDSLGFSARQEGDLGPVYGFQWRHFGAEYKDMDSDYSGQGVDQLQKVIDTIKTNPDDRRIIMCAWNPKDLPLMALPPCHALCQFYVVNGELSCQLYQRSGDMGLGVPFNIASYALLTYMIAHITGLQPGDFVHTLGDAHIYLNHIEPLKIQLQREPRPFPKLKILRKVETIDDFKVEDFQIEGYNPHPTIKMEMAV

On to `C=C1C=CCO[C@@H]1n1cc(F)c(=O)[nH]c1=O`, for which the IC50 in [1] is greater than 10 µM; in series [2] it was 8.7 µM; in series [3], greater than 10 µM; in series [6], 0.43 µM; in series [7] it was 2.2 µM; in [8], 9.3 µM. Moreover, the Stability entry in series [4] and in [5] was “Stable” in each case.

Consider `O=C1C=CCO[C@@H]1n1cc(F)c(=O)[nH]c1=O`, for which the IC50 in [1] is 8.1 µM; in series [2] it was 0.83 µM; in series [3] it was greater than 10 µM; in series [6], 0.063 µM; in series [7] it was 0.071 µM; in [8], 0.95 µM. Moreover, the Stability result in [5] is recorded as “Unstable”.

As for `C=C1[C@H](O)[C@H](O)CO[C@@H]1n1cc(F)c(O)nc1=O`, the IC50 is greater than 500 µM in series [9]; 58 µM in series [10]; 146 µM in [11]; 18 µM in series [12]; 282 µM in series [15]; 1.9 µM in series [19]. Also, the IC50 in series [20] was 18 µM; in series [21], greater than 100 µM; in series [22], 97 µM; in [23] it was 85 µM; in [25], greater than 500 µM; in [26], 18 µM. Further, the concentration for half-maximal inhibition (IC50) was 12 µM in [27]; greater than 500 µM in [30]; 79 µM in series [31]; 18 µM in series [33]; 21 µM in [36]; 66 µM in series [37]. Besides, the result in series [13], in [14], in series [16], in [17], in series [18] and in [24] was inactive. Moreover, the outcome in series [28], in series [29], in [32], in series [34], in series [35] and in [38] was inactive.

Take `O=c1[nH]c(=O)n([C@H]2C[C@H](O)[C@@H](CO)O2)cc1F` [FLOXURIDINE]: the half-inhibitory concentration (IC50) in [9] was 100 µM; in [10], 0.11 µM; in [11], 8.5 µM; in series [1], 0.0006 µM; in series [2], 0.0004 µM; in series [3], 0.0006 µM. Also, the IC50 in [19] amounted to 0.0094 µM; in series [6], 0.0004 µM; in series [26], 0.0023 µM; in series [27], 0.021 µM; in [31], 0.061 µM; in [33], 0.00063 µM. The IC50 was determined as 0.0007 µM in [7], 0.0011 µM in [36] and 0.0051 µM in series [37]. The outcome in series [13], in series [14], in series [16], in [17], in series [18] and in series [24] was inactive. The result in series [28], in series [29], in series [32], in series [34], in series [35] and in series [38] was inactive.

For the molecule `C=C1C=CCO[C@@H]1n1cc(F)c(O)nc1=O`, the IC50 was 182 µM in series [9]; 18 µM in series [10]; 34 µM in series [11]; 3.5 µM in series [12]; 84 µM in series [15]; 2.4 µM in series [19]. Also, the IC50 was 7.9 µM in series [20]; greater than 100 µM in series [21]; 85 µM in [22]; 37 µM in [23]; greater than 500 µM in [25]; 5.7 µM in series [26]. Moreover, the IC50 in [27] is 1.4 µM; in series [30] it was greater than 500 µM; in series [31] it was 8 µM; in [33], 5.8 µM; in series [36] it was 8 µM; in series [37] it was 18 µM. Further, the outcome in series [13], in series [14], in [16], in series [17], in series [18] and in [24] was inactive. Also, the result in [28], in series [29], in [32], in [34], in [35] and in series [38] was inactive.

On to `O=c1[nH]cc(F)c(=O)[nH]1` [FLUOROURACIL], for which the 50% inhibitory concentration (IC50) in [9] was 21 µM; in [10] it was 1 µM; in series [11], 1.5 µM; in [1] it was 7 µM; in [12] it was 0.45 µM; in series [2] it was 0.22 µM. For the same molecule, the IC50 was no less than 10 µM in [3]; 4.9 µM in series [15]; 0.18 µM in [19]; 0.37 µM in [20]; 0.02 µM in [6]; 51 µM in [21]. Also, the IC50 is 0.97 µM in series [23]; greater than 500 µM in [25]; 0.62 µM in series [26]; 0.18 µM in series [27]; greater than 500 µM in [30]; 1.1 µM in series [31]. The IC50 was 0.47 µM in [33], 0.06 µM in series [7], 0.6 µM in series [8] and 1.3 µM in series [37]. For the same molecule, the outcome in series [13], in [14], in series [16], in series [17], in series [18] and in series [24] was inactive. For the same molecule, the result in series [28], in series [29], in [32], in series [34], in [35] and in series [38] was inactive.

On to `C=C1[C@H](O)[C@H](O)CO[C@@H]1n1cc(F)c(=O)[nH]c1=O`, for which the IC50 in [1] is no less than 10 µM; in series [2] it was 3.6 µM; in series [3] it was 8.2 µM; in series [6], 0.57 µM; in [7] it was 5.4 µM; in series [8] it was 5.5 µM. In addition, the Stability entry in [4] and in series [5] was “Stable” in each case.
